US20240150709A1, “COMPOSITIONS AND METHODS FOR MAKING PARASYMPATHETIC NEURONS” (University of Georgia Research Foundation, Inc., priority 2022, published 2024)

Experiments:
hPSC-symNs = assay: MEA neural activity of hPSC-symNs; type: cell-based, human; conditions: 6-OHDA 100 μM, normalized to vehicle
Procedure: (§2) For neural activity measurements, day 16 SCPs were plated on PO/LM/FN coated MEA plates (Axion BioSystems, BioCircuit or CytoView) at 100×10^3 cells/cm^2. […] Activity of differentiated parasymNs or CMs/SMCs on desired timepoints was measured using a MEA plate reader (Axion BioSystems, Maestro Pro) under the neural detection mode or cardiac detection mode, respectively, according to manufacturer's instruction.

parasymN = assay: 6-OHDA toxicity in parasymN (microscopy); type: cell-based, human; conditions: parasymN after 6-OHDA
Procedure: (§1) Cells were fixed by 4% paraformaldehyde for 20 minutes and washed twice by PBS. Fixed cells were permeabilized by 0.3% Triton, 1% BSA and 3% goat or donkey serum in 1× PBS for 20 minutes, and incubated with primary antibodies overnight at 4° C. The next day, cells were washed and incubated with secondary antibodies for one hour at room temperature. Lastly, cells were washed and incubated with DAPI (Sigma, D9542, 1:1000) for 15 minutes at room temperature. Fluorescent images were taken using the Lionheart FX Automated Microscope.

symN = assay: 6-OHDA toxicity in symN (western blot, immunostaining, microscopy); type: cell-based, human
Procedure: Day 30 parasymNs and symNs on 6-well plates were prepared for sample collection. One well for each sample. Cells were washed by PBS and scraped after incubating with lysis buffer contains RIPA buffer (Sigma-Aldrich, R0278, 1×), PMSF protease inhibitor (Thermo Fisher Scientific, 36978, 1 mM) and PhosSTOP phosphatase inhibitor (Sigma-Aldrich, 4906845001). Protein concentration was measured using Bradford reagent (Bio-Rad, 5000006). Proteins were loaded as 20 μg/well and ran in 12% acrylamide gel. After the transfer, nitrocellulose membranes were blocked by 5% skim milk in TBST.
Membranes were incubated with primary antibodies overnight at 4° C. The next day, membranes were washed by PBST and incubated with secondary antibodies for one hour at room temperature. Images were taken using the iBright western blot imager (Invitrogen, FL1500).
as §1

hPSC-parasymNs = assay: MEA neural activity of hPSC-parasymNs; type: cell-based, human; conditions: for parasymN activity (relative MFR: mean firing rate): 1 μM vs control, day 30 hPSC-parasymNs
Procedure: as §2

[1] = test system: non-neural contaminating cell types; assay: Purification of non-neural contaminating cells in parasymN differentiation; type: cell-based, human; conditions: AraC added during the differentiation
Procedure: FIG. 13A illustrates that cell cycle inhibitor AraC was added during the differentiation.

[2] = test system: 3T3-L1-derived white adipocytes; assay: Lipolysis assay, 3T3-L1-derived white adipocytes alone; type: cell-based, mouse; conditions: 10 μM isoproterenol; differentiated adipocytes alone
Procedure: 3T3-L1 were seeded at 20×10^3 cells/cm^2 and fed until 80% confluency, which was defined as day 0. From day 0-3, cells were fed with the differentiation medium containing DMEM (Gibco, 11965118), 10% FBS, 0.5 mM IBMX (Cayman, 13347), 1 μM dexamethasone (Sigma, D2915), and 10 μg/ml insulin (Sigma, 19278). From day 3-6, cells were fed with post-differentiation medium containing DMEM, 10% FBS, and 10 μg/ml insulin. After day 6, cells were maintained in DMEM with 10% FBS until the desired timepoints. To begin with, adipocyte culture medium was replaced with prewarmed lipolysis medium containing 0.5% BSA in DMEM, and cells were incubated for 4 hours at 37° C. After 4 hours, the lipolysis medium was replaced with fresh prewarmed lipolysis medium with test drugs and incubate for 90 minutes at 37° C. […] Glycerol release in adipocyte cultured medium was measured using Adipolysis Assay Kit (Cayman, 10009381) according to manufacturer's instruction.

[3] = test system: 3T3-L1-derived white adipocytes; assay: Lipolysis assay, white adipocytes with or without parasymN co-culture; type: cell-based, mouse
Procedure: To begin with, adipocyte culture medium was replaced with prewarmed lipolysis medium containing 0.5% BSA in DMEM, and cells were incubated for 4 hours at 37° C. After 4 hours, the lipolysis medium was replaced with fresh prewarmed lipolysis medium with test drugs and incubate for 90 minutes at 37° C. Then, the cell culture medium was collected for the assay or stored at −20° C. for long-term storage. Glycerol release in adipocyte cultured medium was measured using Adipolysis Assay Kit (Cayman, 10009381) according to manufacturer's instruction.
To test whether adipose functions can be regulated by parasymN activity, the lipolytic activity was compared.

mouse salivary cell = assay: Calcium imaging of parasymN and mouse salivary cell coculture; type: cell-based; conditions: coculture with parasymN; nicotine stimulation
From the text: FIG. 14B is a plot showing calcium imaging for salivary cell only upon nicotine stimulation.

hPSC-CMs = conditions: nicotine 1 μM; co-culture with hPSC-parasymNs; MEA
Procedure: CM differentiation. […] Briefly, 80-90% confluent H9 ESCs were replated at a 1 to 5 ratio on Matrigel (Corning, 1:20)-coated plates. When cells reached 90% confluency, medium was changed to CDBM base medium, that contains DMEM/F12 (Gibco, 11320033), 64 mg/L ascorbic acid, 13.6 μg/L sodium selenium (Sigma, S5261), 10 μg/ml transferrin (Sigma, T3309) and Chemically Defined Lipid Concentrate (Gibco, 11905031). 5 μM CHIR99021 was added to CDBM medium on day 0. 0.6 U/ml heparin ([sequence] Technologies, 07980) was added to CDBM medium on day 1, 5, 6. 0.6 U/ml heparin and 3 μM XAV were added to CDBM medium on day 2, 3, 4. After day 7, medium was changed to CM maintenance medium that contains CDBM base, 20 μg/ml insulin (Sigma, 1-034), and 2% FBS. CMs were replated on day 10 using accutase at 200×10^3 cells/cm^2 on Matrigel-coated plates. […]
as §2

## NCCc1cc(O)c(O)cc1O [6-OHDA]
hPSC-symNs
  relative MFR over 12 hours after 6-OHDA: displayed early hyperactivity
parasymN
  neural morphology by microscopy: almost intact
symN; 12 hours after treating parasymN/symN with 6-OHDA
  cell death markers PUMA/c-Cas3, western blot: increased only in symN
symN; 24 hours after treating parasymN/symN with 6-OHDA
  cell death marker c-Cas3, percentage of cells by immunostaining: increased only in symN
symN; symN after 6-OHDA
  neural morphology by microscopy: damaged neural morphology
hPSC-parasymNs; 6-OHDA 100 μM, hPSC-parasymNs, normalized to vehicle
  relative MFR over 12 hours after 6-OHDA: remained unaffected

## Nc1ccn([C@@H]2O[C@H](CO)[C@@H](O)[C@@H]2O)c(=O)n1 [AraC]
[1]
  contaminating cells by immunostaining: reduced

## CC(C[N+](C)(C)C)OC(N)=O (stereo not shown) [BeCh, bethanechol]
hPSC-parasymNs; MEA
  parasymN activity (relative MFR: mean firing rate): activated

## CN1[C@@H]2CC[C@H]1C[C@@H](OC(=O)C(CO)c1ccccc1)C2 (stereo partly shown) [atropine]
hPSC-parasymNs; MEA
  parasymN activity (relative MFR: mean firing rate): inactivated

## CC(C)NCC(O)c1ccc(O)c(O)c1 (stereo not shown) [isoproterenol]
[2]
  lipolytic activity (glycerol release): displayed lipolytic activity
[3]; 10 μM isoproterenol, adipocytes co-cultured with parasymNs
  lipolytic levels induced by isoproterenol (normalized glycerol release): counteracted

## CN1CCCC1c1cccnc1 (stereo not shown) [nicotine]
Mouse salivary cell
  salivary cell activity (calcium imaging): increased
[3]; 1 μM nicotine, adipocytes only or parasymN co-cultured
  lipolysis levels (glycerol release): remained unchanged
hPSC-parasymNs; MEA
  parasymN activity (relative MFR: mean firing rate): further inducible
hPSC-CMs
  beating of hPSC-CMs (relative beats/min): decreased

## angiotensin II (DRVYIHPF; Angiotensin-2; UniProt P01019 25-32, looked up) [Ang II, angiotensin II of the renin-angiotensin-aldosterone system]
hPSC-parasymNs; angiotensin II vs control (DMSO), MEA
  parasymN activity (fold change of MFR): decreased
